Assay results published in patent US7799809B2, “Carboxamide compounds and their use as calpain inhibitors” (Abbott GmbH & Co. KG, priority 2006, dated 2010).

Assays:
Assay type in all cases: biochemical
cathepsin S = target: T1, cathepsin S (Homo sapiens, UniProt P25774); assay: Cathepsin S enzyme inhibition in vitro (kinetic fluorescence assay); settings: recombinant human cathepsin S vs calpain I
T1 construct: purchased Calbiochem 219343; host or cells: E. coli
Summary of the method: (§1)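 cat B 0.25 nM + Z-Phe-Arg-AMC 100 μM; cat L 1 nM + Z-Phe-Arg-AMC 2 μM; cat S 0.5 nM (E. coli-expressed) + Z-Val-Val-Arg-AMC 20 μM. 50 mM MES pH 6.0, 2.5 mM L-Cys, RT. Ex 390/em 460, kinetic; Ki app = Cheng-Prusoff from IC50, mean of 2–4 curves.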

cathepsin K = target: T2, cathepsin K (Homo sapiens, UniProt P43235); assay: Cathepsin K enzyme inhibition in vitro (kinetic fluorescence assay); settings: cathepsin K activated from recombinant human procathepsin K vs calpain I
T2 construct: purchased Calbiochem 342001; host or cells: E. coli
T2 sequence (P43235 115-329): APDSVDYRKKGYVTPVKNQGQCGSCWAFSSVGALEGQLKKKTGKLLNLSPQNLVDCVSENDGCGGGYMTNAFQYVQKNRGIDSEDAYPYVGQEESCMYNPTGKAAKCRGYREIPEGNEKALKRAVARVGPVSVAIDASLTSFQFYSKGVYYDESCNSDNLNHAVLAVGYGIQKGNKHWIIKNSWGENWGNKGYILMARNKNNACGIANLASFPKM

cathepsin L = target: T3, cathepsin L (Homo sapiens, UniProt P07711); assay: Cathepsin L enzyme inhibition in vitro (kinetic fluorescence assay); settings: cathepsin L isolated from human liver vs calpain I
T3 construct: cathepsin L—isolated from human liver (Calbiochem #219402); purchased Calbiochem 219402; host or cells: human liver (tissue-derived)
Summary of the method: as §1

cathepsin B = target: T4, cathepsin B (Homo sapiens, UniProt P07858); assay: Cathepsin B enzyme inhibition in vitro (kinetic fluorescence assay); settings: cathepsin B isolated from human liver vs calpain I
T4 construct: cathepsin B—isolated from human liver (Calbiochem #219362); purchased Calbiochem 219362; host or cells: human liver (tissue-derived)
Summary of the method: as §1

T3 sequence (P07711 114-333): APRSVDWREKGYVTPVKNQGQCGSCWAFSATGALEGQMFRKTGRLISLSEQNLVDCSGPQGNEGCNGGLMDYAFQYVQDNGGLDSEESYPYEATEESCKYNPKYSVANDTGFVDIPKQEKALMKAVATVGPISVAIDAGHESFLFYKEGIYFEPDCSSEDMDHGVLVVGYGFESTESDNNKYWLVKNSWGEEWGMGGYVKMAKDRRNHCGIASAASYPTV
T1 sequence (P25774 115-331): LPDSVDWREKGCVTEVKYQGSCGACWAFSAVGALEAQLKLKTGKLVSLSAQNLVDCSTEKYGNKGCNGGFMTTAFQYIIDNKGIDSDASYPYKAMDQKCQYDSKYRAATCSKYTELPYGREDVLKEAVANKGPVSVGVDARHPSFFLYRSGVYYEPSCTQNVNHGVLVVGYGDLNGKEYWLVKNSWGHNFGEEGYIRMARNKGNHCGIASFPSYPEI

Molecule | Sel cat. S: Ki(cathepsin S)/Ki(calpain) ratio (cathepsin S) | Sel cat. K: Ki(cathepsin K)/Ki(calpain) ratio (cathepsin K) | Sel cat. L: Ki(cathepsin L)/Ki(calpain) ratio (cathepsin L) | Sel cat. B: Ki(cathepsin B)/Ki(calpain) ratio (cathepsin B)
COc1ccc(CC(NC(=O)c2cccnc2-n2ccc(-c3cccc(Cl)c3Cl)n2)C(=O)C(N)=O)cc1 (centres unmarked) [Example 153, N-(3-Aamino-1-{[4-(methyloxy)phenyl]methyl}-2,3-dioxopropyl)-2-[3-(2,3-dichlorophenyl)-1H-pyrazol-1-yl]pyridine-3-carboxamide] | ++ (++ means a Ki(cathepsin S)/Ki(calpain) ratio of ≧100) | ++ (++ means a Ki(cathepsin K)/Ki(calpain) ratio of ≧30) | ++ (++ means a Ki(cathepsin L)/Ki(calpain) ratio of ≧50) | ++ (++ means a Ki(cathepsin B)/Ki(calpain) ratio of ≧30)
COc1ccc(CC(NC(=O)c2cccnc2-n2ccc(-c3cccc4ccccc34)n2)C(=O)C(N)=O)cc1 (centres unmarked) [Example 135, N-(3-Amino-1-{[4-(methyloxy)phenyl]methyl}-2,3-dioxopropyl)-2-(3-naphthalen-1-yl-1H-pyrazol-1-yl)pyridine-3-carboxamide] | ++ (++ means a Ki(cathepsin S)/Ki(calpain) ratio of ≧100) | ++ (++ means a Ki(cathepsin K)/Ki(calpain) ratio of ≧30) | ++ (++ means a Ki(cathepsin L)/Ki(calpain) ratio of ≧50) | ++ (++ means a Ki(cathepsin B)/Ki(calpain) ratio of ≧30)
CC(C)c1ccc(-c2ccn(-c3ncccc3C(=O)NC(Cc3ccccc3)C(=O)C(N)=O)n2)cc1 (centres unmarked) [Example 87, N-[3-Amino-2,3-dioxo-1-(phenylmethyl)propyl]-2-{3-[4-(1-methylethyl)phenyl]-1H-pyrazol-1-yl}pyridine-3-carboxamide] | ++ (++ means a Ki(cathepsin S)/Ki(calpain) ratio of ≧100) | ++ (++ means a Ki(cathepsin K)/Ki(calpain) ratio of ≧30) | ++ (++ means a Ki(cathepsin L)/Ki(calpain) ratio of ≧50) | ++ (++ means a Ki(cathepsin B)/Ki(calpain) ratio of ≧30)
NC(=O)C(=O)C(Cc1ccccc1)NC(=O)c1cccnc1-n1ccc(-c2ccccc2F)n1 (centres unmarked) [Example 76, N-(3-Amino-1-benzyl-2,3-dioxopropyl)-2-[3-(2-fluorophenyl)-1H-pyrazol-1-yl]nicotinamide] | ++ (++ means a Ki(cathepsin S)/Ki(calpain) ratio of ≧100) | + (+ means 10≦Ki(cathepsin K)/Ki(calpain)<30) | ++ (++ means a Ki(cathepsin L)/Ki(calpain) ratio of ≧50) | ++ (++ means a Ki(cathepsin B)/Ki(calpain) ratio of ≧30)
NC(=O)C(=O)C(Cc1ccccc1)NC(=O)c1cccnc1-n1ccc(-c2cc(C(F)(F)F)ccc2CN2CCOCC2)n1 (centres unmarked) [Example 163, N-[3-Amino-2,3-dioxo-1-(phenylmethyl)propyl]-2-{3-[2-(morpholin-4-ylmethyl)-5-(trifluoromethyl)phenyl]-1H-pyrazol-1-yl}pyridine-3-carboxamide] | ++ (++ means a Ki(cathepsin S)/Ki(calpain) ratio of ≧100) | + (+ means 10≦Ki(cathepsin K)/Ki(calpain)<30) | + (+ means 30≦Ki(cathepsin L)/Ki(calpain)<50) | + (+ means 10≦Ki(cathepsin B)/Ki(calpain)<30)
NC(=O)C(=O)C(Cc1ccccc1)NC(=O)c1cccnc1-n1ccc(-c2cccs2)n1 (centres unmarked) [Example 55, N-(3-Amino-1-benzyl-2,3-dioxopropyl)-2-[3-(2-thienyl)-1H-pyrazol-1-yl]nicotinamide] | ++ (++ means a Ki(cathepsin S)/Ki(calpain) ratio of ≧100) | + (+ means 10≦Ki(cathepsin K)/Ki(calpain)<30) | ++ (++ means a Ki(cathepsin L)/Ki(calpain) ratio of ≧50) | + (+ means 10≦Ki(cathepsin B)/Ki(calpain)<30)
NC(=O)C(=O)C(Cc1ccccc1)NC(=O)c1cccnc1-n1ccc(-c2ccc(N3CCCC3)cc2)n1 (centres unmarked) [Example 69, N-(3-Amino-1-benzyl-2,3-dioxopropyl)-2-[3-(4-pyrrolidin-1-ylphenyl)-1H-pyrazol-1-yl]nicotinamide] | ++ (++ means a Ki(cathepsin S)/Ki(calpain) ratio of ≧100) | + (+ means 10≦Ki(cathepsin K)/Ki(calpain)<30) | ++ (++ means a Ki(cathepsin L)/Ki(calpain) ratio of ≧50) | + (+ means 10≦Ki(cathepsin B)/Ki(calpain)<30)
NC(=O)C(=O)C(Cc1ccccc1)NC(=O)c1cccnc1-n1ccc(-c2sccc2Cl)n1 (centres unmarked) [Example 109, N-[3-Amino-2,3-dioxo-1-(phenylmethyl)propyl]-2-[3-(3-chloro-2-thienyl)-1H-pyrazol-1-yl]pyridine-3-carboxamide] | ++ (++ means a Ki(cathepsin S)/Ki(calpain) ratio of ≧100) | ++ (++ means a Ki(cathepsin K)/Ki(calpain) ratio of ≧30) | ++ (++ means a Ki(cathepsin L)/Ki(calpain) ratio of ≧50) | ++ (++ means a Ki(cathepsin B)/Ki(calpain) ratio of ≧30)
NC(=O)C(=O)C(Cc1ccc(OC(F)(F)F)cc1)NC(=O)c1cccnc1-n1ccc(-c2cccc(C(F)(F)F)c2)n1 (centres unmarked) [Example 134, N-[3-Amino-2,3-dioxo-1-({4-[(trifluoromethyl)oxy]phenyl}methyl)propyl]-2-{3-[3-(trifluoromethyl)phenyl]-1H-pyrazol-1-yl}pyridine-3-carboxamide] | + (+ means 50≦Ki(cathepsin S)/Ki(calpain)<100) | ++ (++ means a Ki(cathepsin K)/Ki(calpain) ratio of ≧30) | + (+ means 30≦Ki(cathepsin L)/Ki(calpain)<50) | ++ (++ means a Ki(cathepsin B)/Ki(calpain) ratio of ≧30)
COc1ccc(CC(NC(=O)c2cccnc2-n2ccc(-c3ccc(F)cc3Cl)n2)C(=O)C(N)=O)cc1 (centres unmarked) [Example 111, N-(3-Amino-1-{[4-(methyloxy)phenyl]methyl}-2,3-dioxopropyl)-2-[3-(2-chloro-4-fluorophenyl)-1H-pyrazol-1-yl]pyridine-3-carboxamide] | ++ (++ means a Ki(cathepsin S)/Ki(calpain) ratio of ≧100) | ++ (++ means a Ki(cathepsin K)/Ki(calpain) ratio of ≧30) | ++ (++ means a Ki(cathepsin L)/Ki(calpain) ratio of ≧50) | ++ (++ means a Ki(cathepsin B)/Ki(calpain) ratio of ≧30)
N-[3-Amino-2,3-dioxo-1-(phenylmethyl)propyl]-2-[3-(3,5-dichlorophenyl)-1H-pyrazol-1-yl]pyridine-3-carboxamide [Example 89] | ++ (++ means a Ki(cathepsin S)/Ki(calpain) ratio of ≧100) | + (+ means 10≦Ki(cathepsin K)/Ki(calpain)<30) | ++ (++ means a Ki(cathepsin L)/Ki(calpain) ratio of ≧50) | + (+ means 10≦Ki(cathepsin B)/Ki(calpain)<30)
COc1cc(F)ccc1-c1ccn(-c2ncccc2C(=O)NC(Cc2ccccc2)C(=O)C(N)=O)n1 (centres unmarked) [Example 125, N-[3-Amino-2,3-dioxo-1-(phenylmethyl)propyl]-2-{3-[4-fluoro-2-(methyloxy)phenyl]-1H-pyrazol-1-yl}pyridine-3-carboxamide] | ++ (++ means a Ki(cathepsin S)/Ki(calpain) ratio of ≧100) | ++ (++ means a Ki(cathepsin K)/Ki(calpain) ratio of ≧30) | ++ (++ means a Ki(cathepsin L)/Ki(calpain) ratio of ≧50) | ++ (++ means a Ki(cathepsin B)/Ki(calpain) ratio of ≧30)
COc1ccc(CC(NC(=O)c2cccnc2-n2ccc(-c3cccc(F)c3Cl)n2)C(=O)C(N)=O)cc1 (centres unmarked) [Example 157, N-(3-Amino-1-{[4-(methyloxy)phenyl]methyl}-2,3-dioxopropyl)-2-[3-(2-chloro-3-fluorophenyl)-1H-pyrazol-1-yl]pyridine-3-carboxamide] | ++ (++ means a Ki(cathepsin S)/Ki(calpain) ratio of ≧100) | ++ (++ means a Ki(cathepsin K)/Ki(calpain) ratio of ≧30) | ++ (++ means a Ki(cathepsin L)/Ki(calpain) ratio of ≧50) | ++ (++ means a Ki(cathepsin B)/Ki(calpain) ratio of ≧30)
COc1ccccc1-c1ccn(-c2ncccc2C(=O)NC(Cc2ccccc2)C(=O)C(N)=O)n1 (centres unmarked) [Example 90, N-[3-Amino-2,3-dioxo-1-(phenylmethyl)propyl]-2-{3-[2-(methyloxy)phenyl]-1H-pyrazol-1-yl}pyridine-3-carboxamide] | ++ (++ means a Ki(cathepsin S)/Ki(calpain) ratio of ≧100) | + (+ means 10≦Ki(cathepsin K)/Ki(calpain)<30) | ++ (++ means a Ki(cathepsin L)/Ki(calpain) ratio of ≧50) | ++ (++ means a Ki(cathepsin B)/Ki(calpain) ratio of ≧30)
